Experimental data taken from article PMC5585294, “A potent series targeting the malarial cGMP-dependent protein kinase clears infection and blocks transmission” (Nature Communications, 2017).

Experiments:
human MLK3 = molecular target: T1, human MLK3 (Homo sapiens, UniProt Q16584); test: Human kinase panel single point screen, MLK3; type: biochemical; settings: at 100 nM; highest level of inhibition in the panel
T1 construct: Protein Phosphorylation Unit, Dundee (screening site)
Description: (§1) The results are expressed as % inhibition of kinase activity.
(§2) (1 picture or pasted object on this page, not shown here)

[1] = tested on: P. falciparum (NF54) gametocytes; test: Standard membrane feeding assay (SMFA), gametocytes fed to Anopheles stephensi; type: cell-based, Plasmodium falciparum; settings: Plasmodium falciparum, NF54; gametocytes pre-incubated 24 h, oocysts counted day 7 post-feed; read-out: IC50 for reduction of the intensity of infection (oocysts)
Protocol: Mature P. falciparum (NF54) gametocytes (14 day culture, 0.3–0.5% gametocytes, 2% haematocrit) were obtained from an automated tipper system and incubated with compound for 24 h as previously described. Anopheles stephensi (Sind-Kasur Nijmegen strain[39] were reared at 30 °C and 70–80% humidity, while exposed to a 12/12 h day/night cycle. On the day of feeding, the gametocyte culture was adjusted to 50% hematocrit with human red blood cells and human serum and fed to 3–5 day old mosquitoes using a glass membrane mini-feeder system containing 0.35 ml of the P. falciparum culture/compound mix[40]. Unfed and partially fed mosquitoes were removed after feeding and blood fed females were maintained at 26 °C and 70–80% humidity. Up to 20 surviving mosquitoes were collected on day 7 post-infection and oocysts were visualized using a 1% merchurochrome solution and quantified by microscopy. IC50 values were determined by logistic regression using Maximum Likelihood Estimation to find best fit[41].

[2] = tested on: panel of 80 human protein kinases; test: Human kinase panel single point screen; type: biochemical; settings: tested at 100 nM
Description: as §1, §2

[3] = Stability in mouse liver microsomes; settings: mouse, microsomes, 0.5 h
Protocol: (§3) Compound mlm hlm mLogD PAMPA HepG2 name (%rem) (%rem) (nm/s) (IC50 µM)
(§4) Supplementary Table 2. Compound Properties. MLM, HLM, mLogD and PAMPA . mlm (%rem): % of compound remaining after 30 minutes’ incubation with mouse liver microsomes; hlm (%rem): % of compound remaining after 40 minutes’ incubation with human liver microsomes; mLogD: measured LogD at pH 7.4; PAMPA: parallel artificial membrane permeability assay; HepG2: Cytotoxicity assay using HepG2 cells; n.t.: not tested.

[4] = Stability in human liver microsomes; settings: human, microsomes, 40 min
Protocol: as §3, §4

physchem = settings: pH 7.4
Protocol: as §3, §4

[5] = Cytotoxicity assay (ATP depletion), MCF7; type: cell-based; settings: human, MCF7 breast adenocarcinoma cells, 0.001–10 µM, n = 6
Protocol: (§5) A549 (lung carcinoma; ATCC, Ref. ATCC® CCL-185™), plated at 7.5×10^3 cells/well; HT-29 (colorectal adenocarcinoma; ATCC, Ref. ATCC® HTB-38™), plated at 7.5×10^3 cells/well; and MCF7 (breast adenocarcinoma; ATCC, Ref. ATCC® HTB-22™), plated at 9× 10^3 cells/well, were placed into clear bottom, opaque 96 well plates in cell line-specific medium and allowed to attach overnight. […] FCS, 1× GlutaMAX™ Supplement (Life Technologies, 35050061) and 50 units/ml penicillin and 50 µg/ml streptomycin for 48 h. Six independent assays were performed for each line and were carried out by CXR Biosciences Ltd. End point for cytotoxicity assessment was carried out using an ATP depletion kit (CellTiter-Glo Luminescent Cell Viability Assay for ATP quantitation (Promega, Cat # G7572)). Results expressed relative to the 0.1% DMSO control. Unpaired Student’s t-tests were performed using GraphPad Prism software (7.0).

[6] = Cytotoxicity assay (ATP depletion), A549; type: cell-based; settings: human, A549 lung carcinoma cells, 0.001–10 µM, n = 6
Protocol: as §5

T1 sequence (Q16584 whole entry): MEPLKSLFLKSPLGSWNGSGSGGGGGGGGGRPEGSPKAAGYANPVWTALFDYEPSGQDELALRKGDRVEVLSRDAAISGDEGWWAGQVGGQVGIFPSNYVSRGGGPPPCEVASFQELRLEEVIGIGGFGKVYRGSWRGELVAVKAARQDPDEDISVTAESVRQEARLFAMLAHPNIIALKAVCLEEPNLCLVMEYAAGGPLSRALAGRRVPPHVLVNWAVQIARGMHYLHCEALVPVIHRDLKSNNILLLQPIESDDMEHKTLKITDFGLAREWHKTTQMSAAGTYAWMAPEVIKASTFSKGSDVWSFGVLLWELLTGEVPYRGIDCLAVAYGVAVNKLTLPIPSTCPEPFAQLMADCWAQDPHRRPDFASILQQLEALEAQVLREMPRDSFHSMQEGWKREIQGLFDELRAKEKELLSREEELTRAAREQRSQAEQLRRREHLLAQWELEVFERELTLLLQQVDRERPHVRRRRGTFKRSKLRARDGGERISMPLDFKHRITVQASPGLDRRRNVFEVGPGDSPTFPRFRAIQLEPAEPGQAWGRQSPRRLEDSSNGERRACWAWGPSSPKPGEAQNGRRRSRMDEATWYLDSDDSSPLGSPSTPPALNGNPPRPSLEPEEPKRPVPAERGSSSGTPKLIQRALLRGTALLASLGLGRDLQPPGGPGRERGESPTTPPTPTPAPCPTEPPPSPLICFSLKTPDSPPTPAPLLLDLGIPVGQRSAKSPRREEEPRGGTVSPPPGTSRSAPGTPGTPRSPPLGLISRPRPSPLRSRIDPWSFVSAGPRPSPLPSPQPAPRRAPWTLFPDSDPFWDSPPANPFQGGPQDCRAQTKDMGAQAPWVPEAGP

## Cc1cn2c(-c3ccnc(NCC4CC4)n3)c(-c3ccc(F)c(NS(C)(=O)=O)c3)nc2cc1CN(C)C [ML10]
Human MLK3
  inhibition at 0.1 µM: 40%
[1]
  IC50: 0.0413 µM
[2]
  inhibitory activity against panel of 80 human protein kinases: only low levels of inhibitory activity
[3]
  mlm (%rem): 59%
[4]
  hlm (%rem): 61%
physchem
  logD: 2.8
[5]
  EC50 at 48 h: > 10 µM
[6]
  EC50 at 48 h: > 10 µM
